Source: patent publication US20190248768A1, “METHOD FOR PURIFYING BENZOPYRAN DERIVATIVE, CRYSTAL FORM THEREOF, AND METHOD FOR PREPARING CRYSTAL FORM” (priority 2015, published 2019)

Experiments:
Type in all cases: physicochemical
Thermal stability test = conditions: 100° C.
Procedure: (§1) In the following examples and experimental examples, the high performance liquid chromatography (HPLC) analyses were carried out under the following conditions: • Analytical column: C18, 4.6×250 mm, 5 μm • Mobile phase: buffer solution/acetonitrile=40/60 (v/v) • Buffer solution: ammonium formate (0.657 g) was taken and then added to a 1 L volumetric flask. Water was added thereto to the mark so as to dissolve ammonium formate and then the pH of the resulting solution was adjusted to pH 5.5±0.2 with a diluted formic acid. • Wavelength: 254 nm • Column temperature: 30° C. • Flow rate: 1.0 mL/min. • Injection volume: 10 μL
(§2) The X-ray powder diffraction (XRPD) analyses were carried out with the PANalytical's X-pert Pro X-ray powder diffractometer. The measurements at the angles ranging from 3 to 80°2θ values were performed at a scanning rate of 3° per second, using CuKα1 radiation (λα1=1.54060 Å) produced at the conditions of 40 mA and 40 kV.
The crystalline form A of the compound of Formula 1 obtained in Example 1 and the amorphous form of the compound of Formula 1 obtained in Preparation Example were stored at the heat-condition (100° C.) for 2 weeks, so as to evaluate the stabilities thereof.

[1] = Stability test on humidity
Procedure: as §1, §2
The crystalline form A of the compound of Formula 1 obtained in Example 1 and the amorphous form of the compound of Formula 1 obtained in Preparation Example were stored at the humid condition (25° C., 98% RH) for 2 weeks, so as to evaluate the stabilities thereof.

[2] = Accelerated stability test
Procedure: as §1, §2
The crystalline form A of the compound of Formula 1 obtained in Example 1 and the amorphous form of the compound of Formula 1 obtained in Preparation Example were stored at the accelerated condition (40° C., 75% RH) for 2 weeks, so as to evaluate the stabilities thereof.

Row | Purity (as an anhydrous form) (Thermal stability test; 2 weeks) | Water contents (Thermal stability test; 2 weeks) | Purity (as an anhydrous form) (Thermal stability test; Initial) | Water contents (Thermal stability test; Initial) | enantiomer during the test period (Thermal stability test; during 2 weeks) | Water contents ([1]; 25° C., 98% RH, 1 week) | Purity (as an anhydrous form) ([1]; 25° C., 98% RH, 2 weeks) | Water contents ([1]; 25° C., 98% RH, 2 weeks) | Water contents ([1]; 25° C., 98% RH, 1 day) | Water contents ([1]; 25° C., 98% RH, 2 days) | Purity (as an anhydrous form) ([1]; 25° C., 98% RH, Initial) | Water contents ([1]; 25° C., 98% RH, Initial) | enantiomer during the test period ([1]; 25° C., 98% RH, during 2 weeks) | Water contents ([2]; 40° C., 75% RH, 1 week) | Purity (as an anhydrous form) ([2]; 40° C., 75% RH, 2 weeks) | Water contents ([2]; 40° C., 75% RH, 2 weeks) | Water contents ([2]; 40° C., 75% RH, 1 day) | Water contents ([2]; 40° C., 75% RH, 2 days) | Purity (as an anhydrous form) ([2]; 40° C., 75% RH, Initial) | SMILES | change in the appearance (Thermal stability test; during 2 weeks) | also measured
1 | 99.25% | 0.11% | 99.43% | 0.16% | no enantiomer was detected | 0.29% | 99.32% | 0.27% | 0.21% | 0.24% | 99.43% | 0.16% | no enantiomer was detected | 0.17% | 99.34% | 0.18% | 0.18% | 0.18% | 99.43% | COC(OC)[C@]1(C)Oc2ccc(N)cc2[C@H](N(Cc2ncc[nH]2)c2ccc(Cl)cc2)[C@H]1O [crystalline form A of the compound of Formula 1] [(2R,3R,4S)-6-amino-4-[N-(4-chlorophenyl)-N-(1H-imidazol-2-ylmethyl)amino]-3-hydroxy-2-methyl-2-dimethoxymethyl-3,4-dihydro-2H-1-benzopyran] | changed to pale yellow color from the first week | XRPD analyses, crystalline form maintained (Thermal stability test; during 2 weeks): the same crystalline form A was maintained; XRPD analyses, crystalline form maintained ([1]; 25° C., 98% RH, during 2 weeks): the same crystalline form A was maintained; change in the appearance ([1]; 25° C., 98% RH, during 2 weeks): without any change in the appearance; Water contents ([2]; 40° C., 75% RH, Initial): 0.16%; XRPD analyses, crystalline form maintained ([2]; 40° C., 75% RH, during 2 weeks): the same crystalline form A was maintained; change in the appearance ([2]; 40° C., 75% RH, during 2 weeks): without any change in the appearance; enantiomer during the test period ([2]; 40° C., 75% RH, during 2 weeks): no enantiomer was detected
2 | 92.34% | 0.34% | 96.96% | 1.05% | no enantiomer was detected | 3.90% | 96.55% | 3.58% | 3.20% | 3.60% | 96.96% | 1.05% | no enantiomer was detected | 2.52% | 96.72% | 2.60% | 2.30% | 2.64% | 96.96% | COC(OC)[C@]1(C)Oc2ccc(N)cc2[C@H](N(Cc2ncc[nH]2)c2ccc(Cl)cc2)[C@H]1O [amorphous form of the compound of Formula 1] [(2R,3R,4S)-6-amino-4-[N-(4-chlorophenyl)-N-(1H-imidazol-2-ylmethyl)amino]-3-hydroxy-2-methyl-2-dimethoxymethyl-3,4-dihydro-2H-1-benzopyran] | changed to brown color from the first day | water contents over the storing time ([1]; 25° C., 98% RH, during 2 weeks): up to 3.90%; hygroscopicity ([1]; humid condition (25° C., 98% RH)): very high hygroscopicity; Water contents ([2]; 40° C., 75% RH, Initial): 1.05%; water contents over the storing time ([2]; 40° C., 75% RH, during 2 weeks): up to 2.64%; hygroscopicity ([2]; accelerated condition (40° C., 75% RH)): very high hygroscopicity; Water contents ([2]; accelerated condition, in 1 day): 2.30 wt/wt %
